Results reported in US9309242B2, “Substituted pyrido[2,3-b]pyrazines as FGFR kinase inhibitors” (priority 2011, dated 2016).
Like-named read-outs stand apart in the source and are kept apart here.

Legend:
FGFR3 (h) = FGFR3 (h) (Homo sapiens, UniProt P22607); experiment: FGFR3 (enzymatic assay), TR-FRET; format: biochemical; conditions: average values if tested multiple times, read-out: FGFR 3 pIC50 (converted)
Text: Time-Resolved Fluorescence Resonance Energy Transfer (TR-FRET) signal (ex340 nm.

[1] = system: Ba/F3-FGFR1-transfected cells; experiment: Ba/F3-FGFR1 (plus IL3) cellular proliferation assay, counterscreen with 10 ng/ml murine IL3; format: cell-based; conditions: read-out: BAF3-FGFR1 (PLUS IL3) pIC50 (converted)
Summary of the method: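 Ba/F3-FGFR1 cells (20000/well) in RPMI-1640 with 10% FBS exposed to compound for 24 h at 37° C., 5% CO2, then Alamar Blue (resazurin) added for 4 h; fluorescence read at ex 540/em 590 nm. Counterscreen run identically with 10 ng/ml murine IL3.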

[2] = molecular target: T1, Ba/F3-FGFR3-transfected cells (Homo sapiens, UniProt P22607); experiment: Ba/F3-FGFR3 (minus IL3) cellular proliferation assay, Alamar Blue; format: cell-based
T1 construct: BAF3-FGFR3 (MIN IL3) pIC50; other: minus IL3
T1 sequence (P22607 whole entry, change not shown): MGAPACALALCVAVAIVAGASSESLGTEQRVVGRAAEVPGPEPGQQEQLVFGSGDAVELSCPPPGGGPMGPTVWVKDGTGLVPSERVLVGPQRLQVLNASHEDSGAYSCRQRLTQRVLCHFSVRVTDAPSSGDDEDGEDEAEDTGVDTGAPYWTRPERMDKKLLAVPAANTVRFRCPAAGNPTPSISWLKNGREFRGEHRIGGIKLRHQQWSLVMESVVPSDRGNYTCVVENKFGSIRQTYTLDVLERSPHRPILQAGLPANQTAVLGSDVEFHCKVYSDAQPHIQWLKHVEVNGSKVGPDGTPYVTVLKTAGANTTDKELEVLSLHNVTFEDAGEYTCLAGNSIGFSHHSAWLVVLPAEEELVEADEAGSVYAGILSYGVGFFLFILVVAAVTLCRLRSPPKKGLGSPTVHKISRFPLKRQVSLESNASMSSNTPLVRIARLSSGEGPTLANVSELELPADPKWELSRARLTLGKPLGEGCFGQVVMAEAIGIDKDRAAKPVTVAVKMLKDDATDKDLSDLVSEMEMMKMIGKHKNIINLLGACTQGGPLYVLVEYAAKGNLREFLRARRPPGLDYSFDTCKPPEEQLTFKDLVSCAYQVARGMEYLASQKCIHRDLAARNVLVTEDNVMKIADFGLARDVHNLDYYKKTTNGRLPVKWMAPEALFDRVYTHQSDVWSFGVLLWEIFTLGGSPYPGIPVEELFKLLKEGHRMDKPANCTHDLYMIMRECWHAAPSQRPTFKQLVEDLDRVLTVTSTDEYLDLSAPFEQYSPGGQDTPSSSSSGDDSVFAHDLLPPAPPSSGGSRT
Summary of the method: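 Viability readout was resazurin reduction (ex 540/em 590 nm) after 4 h, following 24 h compound treatment at 37 °C of FGFR3-transfected Ba/F3 cells (20000/well, RPMI-1640/10% FBS). IL3-dependent counterscreen used identical conditions plus 10 ng/ml murine IL3.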

[3] = system: Ba/F3-Flt3-transfected cells; experiment: Ba/F3-Flt3 (plus IL3) cellular proliferation assay, counterscreen with 10 ng/ml murine IL3; format: cell-based; conditions: read-out: BAF3_FLT3 (PLUS IL3) pIC50 (converted)
Method: Ba/F3-Flt3 (Minus IL3 or Plus IL3) (Cellular Proliferation Assay)
In a 384 well plate, 100 nl of compound dilution in DMSO was sprayed before adding 50 μl cell culture medium (phenol red free RPMI-1640, 10% FBS, 2 mM L-Glutamine and 50 μg/ml Gentamycin) containing 20000 cells per well of Ba/F3-Flt3-transfected cells. Cells were put in an incubator at 37° C. and 5% CO2. After 24 hours, 10 μl of Alamar Blue solution (0.5 mM K3Fe(CN)6, 0.5 mM K4Fe(CN)6, 0.15 mM Resazurin and 100 mM Phosphate Buffer) was added to the wells, incubated for 4 hours at 37° C. and 5% CO2 before RFU's (Relative Fluorescence Units) (ex. 540 nm., em. 590 nm.) were measured in a fluororescence plate reader.
As a counterscreen the same experiment was performed in the presence of 10 ng/ml murine IL3.

FGFR4 (h) = FGFR4 (h) (Homo sapiens, UniProt P22455); experiment: FGFR4 (enzymatic assay), TR-FRET; format: biochemical; conditions: FGFR 4 pIC50, enzymatic assay; average values if tested multiple times
Sequence of FGFR4 (h) (P22455 22-802): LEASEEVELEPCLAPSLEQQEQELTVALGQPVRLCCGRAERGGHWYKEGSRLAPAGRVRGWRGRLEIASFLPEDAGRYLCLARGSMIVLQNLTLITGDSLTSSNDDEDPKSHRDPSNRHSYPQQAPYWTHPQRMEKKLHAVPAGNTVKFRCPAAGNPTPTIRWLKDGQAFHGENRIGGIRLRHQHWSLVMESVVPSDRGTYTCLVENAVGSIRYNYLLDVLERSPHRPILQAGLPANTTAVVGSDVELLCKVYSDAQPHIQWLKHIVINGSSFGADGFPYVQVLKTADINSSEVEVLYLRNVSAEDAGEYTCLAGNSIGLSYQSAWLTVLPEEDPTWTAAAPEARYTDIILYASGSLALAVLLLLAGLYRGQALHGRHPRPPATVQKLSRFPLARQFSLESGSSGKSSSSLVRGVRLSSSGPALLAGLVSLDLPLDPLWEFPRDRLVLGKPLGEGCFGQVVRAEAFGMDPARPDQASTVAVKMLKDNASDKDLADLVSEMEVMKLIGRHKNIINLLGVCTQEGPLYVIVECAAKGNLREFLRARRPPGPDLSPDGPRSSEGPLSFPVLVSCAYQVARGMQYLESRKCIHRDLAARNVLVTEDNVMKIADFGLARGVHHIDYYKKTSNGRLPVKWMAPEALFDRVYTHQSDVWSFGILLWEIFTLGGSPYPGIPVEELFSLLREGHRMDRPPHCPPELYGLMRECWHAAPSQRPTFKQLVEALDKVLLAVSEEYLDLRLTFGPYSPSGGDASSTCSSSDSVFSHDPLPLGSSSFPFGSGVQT

[4] = molecular target: T2, Ba/F3-FGFR1-transfected cells (Homo sapiens, UniProt P11362); experiment: Ba/F3-FGFR1 (minus IL3) cellular proliferation assay, Alamar Blue; format: cell-based
T2 construct: BAF3-FGFR1 (MIN IL3) pIC50; other: minus IL3
T2 sequence (P11362 whole entry, change not shown): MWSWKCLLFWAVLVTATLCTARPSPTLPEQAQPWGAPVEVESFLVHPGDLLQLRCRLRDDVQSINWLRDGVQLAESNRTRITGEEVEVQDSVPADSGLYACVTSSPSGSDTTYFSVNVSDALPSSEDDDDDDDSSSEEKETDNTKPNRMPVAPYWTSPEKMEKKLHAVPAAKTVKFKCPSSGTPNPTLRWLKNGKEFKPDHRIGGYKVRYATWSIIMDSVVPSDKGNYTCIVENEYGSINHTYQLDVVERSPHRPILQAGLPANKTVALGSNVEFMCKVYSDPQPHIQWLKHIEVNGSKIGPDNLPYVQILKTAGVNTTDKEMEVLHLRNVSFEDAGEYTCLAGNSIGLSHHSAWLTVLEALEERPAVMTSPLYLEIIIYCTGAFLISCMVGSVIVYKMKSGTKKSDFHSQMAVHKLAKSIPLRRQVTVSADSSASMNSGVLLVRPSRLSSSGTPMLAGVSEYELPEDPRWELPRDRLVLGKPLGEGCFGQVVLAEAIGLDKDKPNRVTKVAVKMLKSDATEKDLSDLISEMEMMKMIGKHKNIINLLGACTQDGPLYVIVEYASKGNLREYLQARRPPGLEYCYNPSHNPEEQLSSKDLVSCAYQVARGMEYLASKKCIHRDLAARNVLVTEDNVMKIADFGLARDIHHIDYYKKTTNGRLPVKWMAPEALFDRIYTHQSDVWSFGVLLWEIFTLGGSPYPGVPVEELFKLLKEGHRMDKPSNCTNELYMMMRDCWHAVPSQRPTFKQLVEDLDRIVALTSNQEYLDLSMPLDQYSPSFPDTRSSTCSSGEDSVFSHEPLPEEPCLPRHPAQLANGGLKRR
Summary of the method: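 Viability was measured by resazurin reduction (fluorescence, 540 nm excitation/590 nm emission) after a 4 h Alamar Blue incubation. This followed 24 h of compound treatment at 37 °C, 5% CO2, of 20000 FGFR1-transfected Ba/F3 cells per well in 10% FBS RPMI-1640.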

[5] = plus IL3 (10 ng/ml murine IL3, counterscreen)

Sequence of FGFR3 (h) (P22607 23-806): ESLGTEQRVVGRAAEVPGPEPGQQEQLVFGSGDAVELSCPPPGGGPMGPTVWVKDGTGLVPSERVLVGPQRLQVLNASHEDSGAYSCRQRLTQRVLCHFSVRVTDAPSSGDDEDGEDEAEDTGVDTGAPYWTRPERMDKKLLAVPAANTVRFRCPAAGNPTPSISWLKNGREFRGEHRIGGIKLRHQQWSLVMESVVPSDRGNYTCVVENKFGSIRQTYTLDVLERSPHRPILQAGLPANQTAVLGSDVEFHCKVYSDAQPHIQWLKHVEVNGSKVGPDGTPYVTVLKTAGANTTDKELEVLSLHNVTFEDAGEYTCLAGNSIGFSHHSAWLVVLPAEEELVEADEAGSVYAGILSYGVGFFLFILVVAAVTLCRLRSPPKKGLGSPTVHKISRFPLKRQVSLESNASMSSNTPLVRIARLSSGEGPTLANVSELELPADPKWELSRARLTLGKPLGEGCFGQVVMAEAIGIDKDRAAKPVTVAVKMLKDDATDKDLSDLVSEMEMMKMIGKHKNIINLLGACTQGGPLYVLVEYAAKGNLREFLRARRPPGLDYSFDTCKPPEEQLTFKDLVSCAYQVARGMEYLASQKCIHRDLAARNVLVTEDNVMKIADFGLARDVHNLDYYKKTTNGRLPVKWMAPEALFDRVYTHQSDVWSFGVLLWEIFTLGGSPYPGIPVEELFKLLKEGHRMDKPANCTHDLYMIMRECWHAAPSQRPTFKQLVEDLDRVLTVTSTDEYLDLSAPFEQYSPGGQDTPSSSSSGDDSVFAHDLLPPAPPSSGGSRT

Compound | IC50 (FGFR3 (h)) [µM] | IC50 [1, 5] [µM] | BAF3-FGFR3 (MIN IL3) pIC50 [2] | IC50 [3, 5] [µM] | melting point [°C] | IC50 (FGFR4 (h)) [µM] | BAF3-FGFR1 (MIN IL3) pIC50 [4] | IC50 [1] [µM] | IC50 [3] [µM]
COc1cc(OC)c(F)c(N(CCCO)c2ccc3ncc(-c4cnn(C)c4)nc3n2)c1F (single isomer, unassigned) [Compound 16] | 0.0251 | > 10 | 7.8 | > 10 | 208 | 0.0251 | 8.0 |  | 
COc1cc(OC)c(F)c(N(CCNC(C)C)c2ccc3ncc(-c4cnn(C)c4)nc3n2)c1F [Compound 5] | 0.00158 | 6.31 | 8.3 | > 10 | 183 | 0.00631 | 8.7 |  | 
COCC(O)CN(c1cc(OC)cc(OC)c1)c1ccc2ncc(-c3cnn(C)c3)nc2n1 (centres unmarked) [Compound 7] | 0.00158 | > 10 | 7.1 | > 10 | 65 | 0.00631 | 7.0 |  | 
COc1cc(OC)c(F)c(N(Cc2ncccn2)c2ccc3ncc(-c4cnn(C)c4)nc3n2)c1 [Compound 9] | 0.0158 |  | ~7.2 |  | 227 | 0.0251 | 7.4 | > 10 | > 10
COc1cc(OC)cc(N(CC#Cc2ncccc2OC)c2ccc3ncc(-c4cnn(C)c4)nc3n2)c1 [Compound 26] | 0.0398 | > 10 | ~5.55 | > 10 | 190 | 0.0631 | 6.8 |  | 
COc1cc(/N=c2\ccc3ncc(-c4cnn(C)c4)nc3n2CCNC(C)C)c(F)c(OC)c1 [Compound 37] | 0.00871 | > 10 | ~7.65 | > 10 |  | 0.0155 | 7.78 |  | 
CNCCn1/c(=N/c2cc(OC)cc(OC)c2F)ccc2ncc(-c3cnn(C)c3)nc21 [Compound 38] | 0.0049 | > 10 | 6.27 | > 10 |  | 0.0178 | 6.92 |  | 
CNCCN(c1ccc2ncc(-c3cnn(C)c3)nc2n1)c1cc(OC)cc(OC)c1F [Compound 39] | 0.00398 |  | ~7.61 |  |  | 0.011 | 7.97 | > 10 | > 10
